Test results taken from paper PMC12486805, “Preclinical evaluation of tridecaptin M: in vitro and in vivo efficacy against colistin-resistant Gram-negative bacterial pathogens and pharmacokinetics” (Antimicrobial Agents and Chemotherapy, 2025).
pIC50: −log10 of the molar value. Where a SMILES comes first, the peptide text is derived from it. [ ]: non-standard residue; d: D form. The star is where a group is joined. d(aIle) = CC[C@H](C)[C@@H](N)C(=O)O; X1 = CC[C@H](C)CCCCC(=O)*; dDab = NCC[C@@H](N)C(=O)O; Dab = NCC[C@H](N)C(=O)O

Legend:
CYP2C9 = CYP2C9 (Homo sapiens, UniProt P11712); assay: CYP inhibition assay, recombinant isoform, fluorescence; assay type: biochemical
Method: (§1) The CYP inhibition assay was performed for test/control inhibitor items in duplicates using a 96-well fluorescence plate. An example of the preparation of CYP inhibition is given below in Table 8.
(§2) The plate with CYP master premix with test/control was incubated to allow the test/control samples to interact with CYP enzyme for 10 ± 1 min at 25°C under shaking conditions (400 rpm) using Thermomixer. The assay was initiated by adding 10 µL of a substrate and NADP^+ mixture to all wells, including a vehicle control and an assay blank. The plate was then incubated at 25°C for 25 min with shaking at 400 rpm using a thermomixer. After incubation, the reaction was quenched by adding 50 µL of stop reagent (0.5 M Tris base) to each well. Fluorescence was measured using a microplate reader at excitation/emission wavelengths of 415/460 nm, respectively ([37]).

CYP1A2 = target: T1, CYP1A2 (Homo sapiens, UniProt P05177); assay: biochemical; assay type: biochemical
T1 sequence (P05177 1-516): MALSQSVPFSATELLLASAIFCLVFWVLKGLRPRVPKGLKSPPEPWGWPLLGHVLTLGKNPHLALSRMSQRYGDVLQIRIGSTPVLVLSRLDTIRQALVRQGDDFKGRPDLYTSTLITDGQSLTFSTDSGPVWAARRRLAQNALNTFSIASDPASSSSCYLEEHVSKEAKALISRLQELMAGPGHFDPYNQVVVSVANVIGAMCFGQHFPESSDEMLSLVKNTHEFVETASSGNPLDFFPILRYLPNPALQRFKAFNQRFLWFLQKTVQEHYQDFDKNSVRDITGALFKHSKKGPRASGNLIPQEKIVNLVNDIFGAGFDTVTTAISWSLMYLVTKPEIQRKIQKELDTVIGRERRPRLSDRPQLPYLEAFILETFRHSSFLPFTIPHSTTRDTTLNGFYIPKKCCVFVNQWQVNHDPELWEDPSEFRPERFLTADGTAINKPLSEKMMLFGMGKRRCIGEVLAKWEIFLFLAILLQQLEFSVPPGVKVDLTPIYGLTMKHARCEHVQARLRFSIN
Method: as §1
as §2, with “The plate was then incubated at 25°C for 25 min with shaking at 400 rpm using a thermomixer.” left out, “well.” for “well. Fluorescence was measured using a microplate reader at excitation/emission wavelengths of 415/460 nm, respectively ([37]).”

Chain of CYP2C9 (P11712 whole entry, canonical isoform): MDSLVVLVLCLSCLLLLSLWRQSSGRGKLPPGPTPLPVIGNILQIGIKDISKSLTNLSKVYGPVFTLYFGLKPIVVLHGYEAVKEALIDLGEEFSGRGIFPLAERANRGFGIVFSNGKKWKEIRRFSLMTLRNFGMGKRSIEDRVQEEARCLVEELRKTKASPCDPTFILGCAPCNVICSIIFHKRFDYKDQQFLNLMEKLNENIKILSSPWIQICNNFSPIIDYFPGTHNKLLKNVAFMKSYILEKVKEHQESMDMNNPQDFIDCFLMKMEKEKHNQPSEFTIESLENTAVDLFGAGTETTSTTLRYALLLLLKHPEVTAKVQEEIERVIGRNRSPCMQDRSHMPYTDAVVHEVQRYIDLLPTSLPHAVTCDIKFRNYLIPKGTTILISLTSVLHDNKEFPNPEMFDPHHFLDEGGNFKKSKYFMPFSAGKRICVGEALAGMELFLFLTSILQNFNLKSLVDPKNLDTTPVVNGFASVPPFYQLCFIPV

**Q.** Which results are given for CC[C@H](C)CCCCC(=O)NCC(=O)N[C@H](CCN)C(=O)NCC(=O)N[C@H](CO)C(=O)N[C@H](Cc1c[nH]c2ccccc12)C(=O)N[C@@H](CO)C(=O)N[C@@H](CCN)C(=O)N[C@H](CCN)C(=O)N[C@H](C(=O)N[C@@H](CCC(=O)O)C(=O)N[C@H](C(=O)N[C@@H](C(=O)N[C@@H](CO)C(=O)O)[C@@H](C)CC)[C@@H](C)CC)[C@@H](C)CC [Tridecaptin M, tridecaptin M] (X1-G[dDab]G[dS][dW]S[Dab][dDab]IEI[d(aIle)]S-OH)?
**A.** pIC50 (CYP2C9): < 4.52; inhibition at 25 min, 0.01 µM (CYP2C9; human): < 0%; inhibition at 25 min, 0.03 µM (CYP2C9; human): 0.93%; inhibition at 25 min, 0.1 µM (CYP2C9; human): < 0%; inhibition at 25 min, 0.3 µM (CYP2C9; human): < 0%; inhibition at 25 min, 1 µM (CYP2C9; human): 0.05%; inhibition at 25 min, 3 µM (CYP2C9; human): < 0%; inhibition at 25 min, 10 µM (CYP2C9; human): 0.82%; inhibition at 25 min, 30 µM (CYP2C9; human): 25.6%; pIC50 (CYP1A2): < 4.52; inhibition at 25 min, 0.01 µM (CYP1A2; human, % inhibition CYP 1A2): < 0%; inhibition at 25 min, 0.03 µM (CYP1A2; human, % inhibition CYP 1A2): < 0%; inhibition at 25 min, 0.1 µM (CYP1A2; human, % inhibition CYP 1A2): < 0%; inhibition at 25 min, 0.3 µM (CYP1A2; human, % inhibition CYP 1A2): < 0%; inhibition at 25 min, 1 µM (CYP1A2; human, % inhibition CYP 1A2): < 0%; inhibition at 25 min, 3 µM (CYP1A2; human, % inhibition CYP 1A2): < 0%; inhibition at 25 min, 10 µM (CYP1A2; human, % inhibition CYP 1A2): < 0%; inhibition at 25 min, 30 µM (CYP1A2; human, % inhibition CYP 1A2): ≤ 0%
